# Assays:
# Integrin alpha-4/beta-1 = Integrin alpha-4/beta-1 (Homo sapiens, UniProt P05556+P13612); assay: Inhibitory activity against very late antigen-4 (VLA-4) using VCAM-Ig ligand.; format: protein-complex assay
# Rattus norvegicus = species: Rattus norvegicus; assay: The plasma concentration versus time curve (AUC) was determined; details: in vivo
# [1] = biological target: T1, Integrin alpha-4/beta-7 (Homo sapiens) (UniProt P13612+P26010); assay: Inhibition of MadCAM-Ig binding to alpha-4 beta-7 integrin at 0.1 uM; format: protein-complex assay
# in vivo = details: Sprague-Dawley, rat, plasma
# [2] = Plasma clearance was reported in Sprague-Dawley rat
# [3] = Volume of distribution was reported in Sprague-Dawley rat; details: in vivo
# Integrin alpha-4/beta-7 = biological target: T2, Integrin alpha-4/beta-7 (Homo sapiens, UniProt P13612+P26010); assay: Inhibition of MadCAM-Ig binding to alpha-4 beta-7 integrin; format: protein-complex assay
# T2 sequence (P13612 whole entry): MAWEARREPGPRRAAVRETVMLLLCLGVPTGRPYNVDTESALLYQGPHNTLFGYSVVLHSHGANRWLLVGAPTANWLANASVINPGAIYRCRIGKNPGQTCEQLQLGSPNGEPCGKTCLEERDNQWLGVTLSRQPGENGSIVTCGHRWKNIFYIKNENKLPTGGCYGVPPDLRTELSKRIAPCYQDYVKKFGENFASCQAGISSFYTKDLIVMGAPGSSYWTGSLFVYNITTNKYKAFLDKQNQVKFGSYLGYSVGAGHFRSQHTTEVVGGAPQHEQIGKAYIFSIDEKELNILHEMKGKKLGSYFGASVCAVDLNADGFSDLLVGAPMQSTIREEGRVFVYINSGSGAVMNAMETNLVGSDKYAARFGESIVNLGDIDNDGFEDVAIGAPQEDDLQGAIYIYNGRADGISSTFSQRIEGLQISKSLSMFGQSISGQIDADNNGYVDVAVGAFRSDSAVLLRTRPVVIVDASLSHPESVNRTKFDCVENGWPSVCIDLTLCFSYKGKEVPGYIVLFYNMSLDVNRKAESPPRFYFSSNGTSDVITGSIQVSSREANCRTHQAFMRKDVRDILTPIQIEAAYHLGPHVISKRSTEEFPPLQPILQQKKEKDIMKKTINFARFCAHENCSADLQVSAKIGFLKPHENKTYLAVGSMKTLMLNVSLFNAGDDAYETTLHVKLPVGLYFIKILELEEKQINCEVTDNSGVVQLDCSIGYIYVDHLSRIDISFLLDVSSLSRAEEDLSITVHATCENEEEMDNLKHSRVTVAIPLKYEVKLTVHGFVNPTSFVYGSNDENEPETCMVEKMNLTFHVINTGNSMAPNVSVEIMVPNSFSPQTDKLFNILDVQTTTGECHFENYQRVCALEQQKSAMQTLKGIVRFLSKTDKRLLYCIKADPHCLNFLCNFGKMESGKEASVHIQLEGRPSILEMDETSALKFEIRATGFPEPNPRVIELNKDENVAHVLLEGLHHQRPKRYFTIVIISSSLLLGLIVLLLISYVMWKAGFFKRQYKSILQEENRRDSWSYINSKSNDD
# T2 sequence (P26010 whole entry): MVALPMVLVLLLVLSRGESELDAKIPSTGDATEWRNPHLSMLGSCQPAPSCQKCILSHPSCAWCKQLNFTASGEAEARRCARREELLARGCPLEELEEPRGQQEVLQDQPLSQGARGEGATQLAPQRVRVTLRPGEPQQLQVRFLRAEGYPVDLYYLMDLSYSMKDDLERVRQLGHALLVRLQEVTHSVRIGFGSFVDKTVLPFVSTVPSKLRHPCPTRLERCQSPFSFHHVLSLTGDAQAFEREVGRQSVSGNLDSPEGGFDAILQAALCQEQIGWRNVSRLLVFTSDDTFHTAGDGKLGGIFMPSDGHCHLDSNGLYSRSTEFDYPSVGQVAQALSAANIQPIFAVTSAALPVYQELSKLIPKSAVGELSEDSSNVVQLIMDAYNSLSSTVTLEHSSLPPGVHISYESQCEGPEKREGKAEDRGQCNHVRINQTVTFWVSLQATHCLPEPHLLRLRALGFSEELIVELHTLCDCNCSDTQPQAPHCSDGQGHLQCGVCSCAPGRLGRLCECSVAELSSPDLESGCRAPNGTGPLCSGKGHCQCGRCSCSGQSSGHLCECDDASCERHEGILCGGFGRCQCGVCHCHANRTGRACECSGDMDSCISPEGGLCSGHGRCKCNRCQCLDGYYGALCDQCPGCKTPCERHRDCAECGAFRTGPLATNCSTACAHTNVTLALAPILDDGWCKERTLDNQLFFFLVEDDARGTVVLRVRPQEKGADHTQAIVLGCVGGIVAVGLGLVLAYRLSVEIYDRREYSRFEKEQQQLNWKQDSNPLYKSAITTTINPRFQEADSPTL
# [4] = biological target: T1, Integrin alpha-4/beta-7 (Homo sapiens); assay: Inhibition of MadCAM-Ig binding to alpha-4 beta-7 integrin at 20 uM; format: protein-complex assay
# Sequence of Integrin alpha-4/beta-1 (P05556 whole entry, one chain of several): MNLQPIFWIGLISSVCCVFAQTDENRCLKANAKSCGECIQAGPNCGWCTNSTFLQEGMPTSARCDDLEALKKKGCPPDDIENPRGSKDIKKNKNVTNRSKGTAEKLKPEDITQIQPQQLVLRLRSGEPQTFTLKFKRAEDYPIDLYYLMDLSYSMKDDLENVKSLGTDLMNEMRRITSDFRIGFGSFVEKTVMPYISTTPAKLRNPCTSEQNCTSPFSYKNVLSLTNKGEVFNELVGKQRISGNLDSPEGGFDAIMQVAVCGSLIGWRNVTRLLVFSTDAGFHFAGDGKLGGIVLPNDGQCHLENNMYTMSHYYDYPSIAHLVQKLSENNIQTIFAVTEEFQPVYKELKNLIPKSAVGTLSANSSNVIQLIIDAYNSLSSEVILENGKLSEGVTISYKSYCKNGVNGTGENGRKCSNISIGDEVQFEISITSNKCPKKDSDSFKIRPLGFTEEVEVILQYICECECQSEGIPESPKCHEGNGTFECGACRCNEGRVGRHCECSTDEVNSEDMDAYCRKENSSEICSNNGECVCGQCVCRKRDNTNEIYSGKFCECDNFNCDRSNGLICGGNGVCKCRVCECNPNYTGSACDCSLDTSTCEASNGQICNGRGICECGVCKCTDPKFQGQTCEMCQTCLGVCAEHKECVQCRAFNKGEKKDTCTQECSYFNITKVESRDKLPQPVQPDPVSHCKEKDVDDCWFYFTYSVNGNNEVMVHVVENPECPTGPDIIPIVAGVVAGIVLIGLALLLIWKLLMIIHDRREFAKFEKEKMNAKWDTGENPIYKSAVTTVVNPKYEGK
Compound,IC50 (Integrin alpha-4/beta-1),further results
C[C@@]1(C(=O)N[C@@H](Cc2ccc(F)cc2)C(=O)O)CCCN1S(=O)(=O)c1cc(Cl)cc(Cl)c1,1.2 nM,plasma concentration (Rattus norvegicus): ~ 1 nM; inhibition [1]: < 5%; half-life (in vivo): 72 min; clearance [2]: 44 mL/min/kg; Vd [3]: 1.2 L/kg
COc1ccc(C[C@H](NC(=O)[C@]2(C)CCCN2S(=O)(=O)c2cc(Cl)cc(Cl)c2)C(=O)O)cc1,0.59 nM,inhibition [1]: 16%; half-life (in vivo): 36 min; clearance [2]: 47 mL/min/kg; Vd [3]: 1.4 L/kg
C[C@]1(C(=O)N[C@@H](Cc2ccccc2)C(=O)O)CCCN1S(=O)(=O)c1cc(Cl)cc(Cl)c1,2060 nM,
C[C@@]1(C(=O)N[C@@H](Cc2ccc(O)cc2)C(=O)O)CCCN1S(=O)(=O)c1cc(Cl)cc(Cl)c1,0.86 nM,
O=C(O)[C@H](Cc1cc(F)cc(F)c1)NC(=O)[C@@H]1CCCN1S(=O)(=O)c1cc(Cl)cc(Cl)c1,1.1 nM,
C[C@@]1(C(=O)N[C@@H](Cc2ccc(C(F)(F)F)cc2)C(=O)O)CCCN1S(=O)(=O)c1cc(Cl)cc(Cl)c1,3.9 nM,inhibition [1]: 25%
C[C@@]1(C(=O)N[C@@H](Cc2ccc(C#N)cc2)C(=O)O)CCCN1S(=O)(=O)c1cc(Cl)cc(Cl)c1,1.6 nM,inhibition [1]: 29%
C[C@@]1(C(=O)N[C@@H](Cc2ccc(I)cc2)C(=O)O)CCCN1S(=O)(=O)c1cc(Cl)cc(Cl)c1,4.77 nM,inhibition [4]: 58%
C[C@@]1(C(=O)N[C@@H](Cc2cccs2)C(=O)O)CCCN1S(=O)(=O)c1cc(Cl)cc(Cl)c1,1.61 nM,inhibition [4]: 45%
C[C@@]1(C(=O)N[C@@H](Cc2ccncc2)C(=O)O)CCCN1S(=O)(=O)c1cc(Cl)cc(Cl)c1,1.31 nM,inhibition [1]: 13%
C[C@@]1(C(=O)N[C@@H](Cc2ccc(OC(F)(F)F)cc2)C(=O)O)CCCN1S(=O)(=O)c1cc(Cl)cc(Cl)c1,3.8 nM,half-life (in vivo): 54 min; clearance [2]: 36 mL/min/kg; Vd [3]: 1.4 L/kg
O=C(O)[C@H](Cc1cscn1)NC(=O)[C@@H]1CCCN1S(=O)(=O)c1cc(Cl)cc(Cl)c1,0.73 nM,IC50 (Integrin alpha-4/beta-7): 2350 nM
C[C@@]1(C(=O)N[C@@H](Cc2cccc(Cl)c2)C(=O)O)CCCN1S(=O)(=O)c1cc(Cl)cc(Cl)c1,1.7 nM,inhibition [1]: < 16%
C[C@@]1(C(=O)N[C@@H](Cc2ccccc2Cl)C(=O)O)CCCN1S(=O)(=O)c1cc(Cl)cc(Cl)c1,1.8 nM,inhibition [1]: < 16%
C[C@@]1(C(=O)N[C@@H](Cc2ccccc2F)C(=O)O)CCCN1S(=O)(=O)c1cc(Cl)cc(Cl)c1,1.7 nM,inhibition [1]: < 5%
C[C@@]1(C(=O)N[C@@H](Cc2ccc(Cl)cc2)C(=O)O)CCCN1S(=O)(=O)c1cc(Cl)cc(Cl)c1,2.3 nM,inhibition [1]: < 16%
C[C@@]1(C(=O)N[C@@H](Cc2ccccc2)C(=O)O)CCCN1S(=O)(=O)c1cc(Cl)cc(Cl)c1,1 nM,IC50 (Integrin alpha-4/beta-7): 3550 nM
C[C@]1(C(=O)N[C@H](Cc2ccccc2)C(=O)O)CCCN1S(=O)(=O)c1cc(Cl)cc(Cl)c1,28400 nM,
C[C@@]1(C(=O)N[C@H](Cc2ccccc2)C(=O)O)CCCN1S(=O)(=O)c1cc(Cl)cc(Cl)c1,152 nM,
C[C@@]1(C(=O)N[C@@H](Cc2cccc(F)c2)C(=O)O)CCCN1S(=O)(=O)c1cc(Cl)cc(Cl)c1,0.9 nM,inhibition [1]: < 5%

# More lines, main results first:
IC50 (Integrin alpha-4/beta-1),Compound,further results
0.86 nM,O=C(O)[C@H](Cc1cccnc1)NC(=O)[C@@H]1CCCN1S(=O)(=O)c1cc(Cl)cc(Cl)c1,IC50 (Integrin alpha-4/beta-7): 2100 nM
0.33 nM,O=C(O)[C@H](Cc1ccc(I)cc1)NC(=O)[C@@H]1CCCN1S(=O)(=O)c1cc(Cl)cc(Cl)c1,
0.86 nM,O=C(O)[C@H](Cc1ccc(OC(F)(F)F)cc1)NC(=O)[C@@H]1CCCN1S(=O)(=O)c1cc(Cl)cc(Cl)c1,
0.79 nM,N#Cc1ccc(C[C@H](NC(=O)[C@@H]2CCCN2S(=O)(=O)c2cc(Cl)cc(Cl)c2)C(=O)O)cc1,
0.44 nM,CCc1ccc(C[C@H](NC(=O)[C@@H]2CCCN2S(=O)(=O)c2cc(Cl)cc(Cl)c2)C(=O)O)cc1,
0.92 nM,O=C(O)[C@H](Cc1ccc(Br)cc1)NC(=O)[C@@H]1CCCN1S(=O)(=O)c1cc(Cl)cc(Cl)c1,
0.48 nM,O=C(O)[C@H](Cc1ccc(F)cc1)NC(=O)[C@@H]1CCCN1S(=O)(=O)c1cc(Cl)cc(Cl)c1,
1.3 nM,O=C(O)[C@H](Cc1ccccc1F)NC(=O)[C@@H]1CCCN1S(=O)(=O)c1cc(Cl)cc(Cl)c1,
26.5 nM,O=C(O)[C@H](Cc1ccccn1)NC(=O)[C@@H]1CCCN1S(=O)(=O)c1cc(Cl)cc(Cl)c1,
1.88 nM,CCc1ccc(C[C@H](NC(=O)[C@]2(C)CCCN2S(=O)(=O)c2cc(Cl)cc(Cl)c2)C(=O)O)cc1,inhibition [1]: 2%
0.3 nM,O=C(O)[C@H](Cc1ccc([N+](=O)[O-])cc1)NC(=O)[C@@H]1CCCN1S(=O)(=O)c1cc(Cl)cc(Cl)c1,
0.92 nM,O=C(O)[C@H](Cc1cccs1)NC(=O)[C@@H]1CCCN1S(=O)(=O)c1cc(Cl)cc(Cl)c1,IC50 (Integrin alpha-4/beta-7): 2850 nM
0.65 nM,O=C(O)[C@H](Cc1ccc(-c2ccccc2)cc1)NC(=O)[C@@H]1CCCN1S(=O)(=O)c1cc(Cl)cc(Cl)c1,
0.99 nM,O=C(O)[C@H](Cc1ccccc1Cl)NC(=O)[C@@H]1CCCN1S(=O)(=O)c1cc(Cl)cc(Cl)c1,
3.2 nM,O=C(O)[C@H](Cc1cccc(C(F)(F)F)c1)NC(=O)[C@@H]1CCCN1S(=O)(=O)c1cc(Cl)cc(Cl)c1,
0.22 nM,CC(C)(C)Oc1ccc(C[C@H](NC(=O)[C@@H]2CCCN2S(=O)(=O)c2cc(Cl)cc(Cl)c2)C(=O)O)cc1,
0.67 nM,O=C(O)[C@H](Cc1cccc(F)c1)NC(=O)[C@@H]1CCCN1S(=O)(=O)c1cc(Cl)cc(Cl)c1,
0.67 nM,O=C(O)[C@H](Cc1ccncc1)NC(=O)[C@@H]1CCCN1S(=O)(=O)c1cc(Cl)cc(Cl)c1,inhibition [4]: 45%
0.48 nM,O=C(O)[C@H](Cc1ccc(F)c(F)c1)NC(=O)[C@@H]1CCCN1S(=O)(=O)c1cc(Cl)cc(Cl)c1,
3.6 nM,O=C(O)[C@H](Cc1cccc(Cl)c1)NC(=O)[C@@H]1CCCN1S(=O)(=O)c1cc(Cl)cc(Cl)c1,
0.85 nM,O=C(O)[C@H](Cc1ccc(Cl)cc1)NC(=O)[C@@H]1CCCN1S(=O)(=O)c1cc(Cl)cc(Cl)c1,

# Source: ChEMBL document CHEMBL1135072, “Substituted N-(3,5-dichlorobenzenesulfonyl)-L-prolyl-phenylalanine analogues as potent VLA-4 antagonists” (Bioorg Med Chem Lett, 2002)
